Experimental data: patent publication US4472304A, “(Amido)N-substituted bleomycins, salts thereof and process for preparation thereof” (Nippon Kayaku Kabushiki Kaisha, priority 1981, dated 1984)
Values after ≈ are worked out from the molar mass of the structure shown.

Columns and labels:
[1] = tested on: Mycobacterium smegmatis ATCC 607; test: Antimicrobial activity against Mycobacterium smegmatis ATCC 607 (agar plate-cylinder); format: cell-based; conditions: standard bleomycin A2 (copper-free) assumed 1,000 mcg potency/mg
Procedure: (§1) 2. ANT[…] MYC[…] ATCC 607 AND BACILLUS SUBTILIS
(§2) The antimicrobial activity was tested against the captioned test organisms by the method of agar plate-cylinder. The activity was recorded on the assumption that the activity of standard sample of bleomycin A2 (copper-free form) is 1,000 mcg poteney/mg.

Bacillus subtilis = test: Antimicrobial activity against Bacillus subtilis (agar plate-cylinder); format: cell-based; conditions: standard bleomycin A2 (copper-free) assumed 1,000 mcg potency/mg
Procedure: as §1, §2

[2] = target: T1, bleomycin-inactivating enzyme (Rattus norvegicus, UniProt P70645); conditions: rated under conditions where inactivation of bleomycin B2 is 50%; 37° C., 40 minutes; residual activity against M. smegmatis ATCC 607
T1 sequence (P70645 1-454): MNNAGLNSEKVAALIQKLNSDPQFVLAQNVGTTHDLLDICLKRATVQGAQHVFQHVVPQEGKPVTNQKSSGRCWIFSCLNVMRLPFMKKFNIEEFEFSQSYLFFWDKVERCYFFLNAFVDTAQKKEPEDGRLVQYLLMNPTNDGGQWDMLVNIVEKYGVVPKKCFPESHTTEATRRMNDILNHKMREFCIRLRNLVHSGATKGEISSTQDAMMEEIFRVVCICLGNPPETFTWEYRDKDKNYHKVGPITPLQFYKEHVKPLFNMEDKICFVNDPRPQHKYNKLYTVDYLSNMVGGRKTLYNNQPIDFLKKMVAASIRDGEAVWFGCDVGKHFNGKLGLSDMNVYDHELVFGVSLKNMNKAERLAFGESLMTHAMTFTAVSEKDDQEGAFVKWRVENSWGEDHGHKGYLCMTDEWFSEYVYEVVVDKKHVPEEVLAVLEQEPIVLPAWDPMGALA

pulmonary fibrosis = test: Pulmonary toxicity (pulmonary fibrosis) in mice
HeLa S3 cells = test: Growth inhibitory activity against cultured HeLa S3 cells; format: cell-based; conditions: Homo sapiens, HeLa S3, 72 h; Cu-free; 3 days; read-out: 50% Growth inhibitory concentration of Cu-free compd. against cultured HeLaS3 cells (ID50)
Procedure: 3. GROWTH INHIBITORY ACTIVITY AGAINST CULTURED HELA S3 CELLS
HeLa S3 cells were inoculated into a medium (MEM with 10% bovine serum) placed in a plastic petri dish. Two days thereafter, a bleomycin was added to the dish. After 3 days of breeding, the number of cells were counted. The percentage growth inhibition was calculated using the following equation:
Percentage inhibition (%)=100×(B-A)/(B-C) where A is the final number of cells after 3 days from the addition of test sample, B is the final number of cells in the control without addition of the test smaple, and C is the number of cells at the time of addition of the test sample.

[3] = target: T1, bleomycin-inactivating enzyme; test: in vitro; conditions: liver extract
[4] = ICR mice, 5 mg/kg i.p. once a day for 10 days, points 0, 1, 2, 4, 6

SMILES	Antimicrobial potency of Cu-free compound against Mycobacterium smegmatis ATCC 607 [1]	Antimicrobial potency of Cu-free compound against Bacillus subtilis (Bacillus subtilis)	Resistance of Cu-free compound against inactivating enzyme (degree of inactivation) [2]	Incidence: Number of mice with pulmonary fibrosis (%) (pulmonary fibrosis; ICR mice, 5 mg/kg i.p. once a day for 10 days, 5 weeks observation)	Incidence: Number of mice with pulmonary fibrosis (pulmonary fibrosis; ICR mice, 5 mg/kg i.p. once a day for 10 days, 5 weeks observation, mice with fibrosis/total)	Grade: Total score of pulmonary fibrosis/total number of samples (pulmonary fibrosis; [4])	Grade: Total score of pulmonary fibrosis/total number of samples (%) (pulmonary fibrosis; [4])	Ratio (by comparison with "Bleomycin Complex") (pulmonary fibrosis; versus Bleomycin Complex)	IC50 (HeLa S3 cells)	metabolised at 40 min [3]
CCCCN(CCCC)CCCNC(=O)C(N)CNC(CC(N)=O)c1nc(N)c(C)c(C(=O)NC(C(=O)NC(C)C(O)C(C)C(=O)NC(C(=O)NCCc2nc(-c3nc(C(=O)NCCC[N+](CC)(CC)CCCN(Cc4ccccc4)Cc4ccccc4)cs3)cs2)C(C)O)C(OC2OC(CO)C(O)C(O)C2OC2OC(CO)C(O)C(OC(N)=O)C2O)c2cnc[nH]2)n1 (stereo not drawn) [Compound 57, 3-{N,N--diethyl-N--[3-(dibenzylamino)propyl]amino}propylamino-(amido)N--[3-(di-n-butylamino)propyl]-BLM]	25924 mcg potency/mg	1831 mcg potency/mg	+++ +	0%	0/9	0/27	0%	0	–	–
CCN(CC)CCCC(C)NC(=O)C(N)CNC(CC(N)=O)c1nc(N)c(C)c(C(=O)NC(C(=O)NC(C)C(O)C(C)C(=O)NC(C(=O)NCCc2nc(-c3nc(C(=O)NCCCNC(C)c4ccccc4)cs3)cs2)C(C)O)C(OC2OC(CO)C(O)C(O)C2OC2OC(CO)C(O)C(OC(N)=O)C2O)c2cnc[nH]2)n1 [Compound 36, 3-((S)-1'-phenylethylamino)propylamino-(amido)N--[4-diethylamino-1-methylbutyl]-BLM]	6061 mcg potency/mg	3694 mcg potency/mg	+ +++	–	–	–	–	–	–	–
CCNC(=O)C(N)CNC(CC(N)=O)c1nc(N)c(C)c(C(=O)NC(C(=O)NC(C)C(O)C(C)C(=O)NC(C(=O)NCCc2nc(-c3nc(C(=O)NCCc4c[nH]cn4)cs3)cs2)C(C)O)C(OC2OC(CO)C(O)C(O)C2OC2OC(CO)C(O)C(OC(N)=O)C2O)c2cnc[nH]2)n1 (stereo not drawn) [Compound 2, 2-(4'-Imidazolyl)ethylamino-(amido)N--[ethyl]-BLM]	1895 mcg potency/mg	767 mcg potency/mg	–	–	–	–	–	–	0.98 mg/L (≈ 0.683 µM)	15 to 24%
